Legend:
Format in all cases: biochemical
[1] = target: T1, JIK (Homo sapiens, UniProt Q9H2K8); test: JIK Luciferase-Coupled Chemiluminescent Kinase assay (LCCA); conditions: 2 μM ATP, 10 μM MBP, 6 nM JIK, 2 hours; read-out: JIK inhibition IC50
T1 construct: 6 nM JIK (baculovirus expressed human KIAA 1361 kinase domain2-318); made in house
T1 sequence (Q9H2K8 2-318): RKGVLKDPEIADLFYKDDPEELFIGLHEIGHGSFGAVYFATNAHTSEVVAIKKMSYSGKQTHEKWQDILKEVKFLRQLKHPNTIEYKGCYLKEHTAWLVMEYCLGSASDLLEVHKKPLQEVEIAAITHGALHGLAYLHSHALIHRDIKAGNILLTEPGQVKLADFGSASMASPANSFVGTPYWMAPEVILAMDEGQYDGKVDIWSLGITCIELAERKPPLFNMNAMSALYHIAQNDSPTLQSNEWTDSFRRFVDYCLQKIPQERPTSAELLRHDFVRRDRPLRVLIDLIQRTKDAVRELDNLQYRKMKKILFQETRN
Summary of the method: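 Baculovirus-expressed human KIAA 1361 kinase domain 2-318 at 6 nM, with 10 μM MBP and 2 μM ATP in Tris pH 7.5 with Mg/Mn, ran 2 h at ambient temperature. Remaining ATP was read by luciferase chemiluminescence. IC50 comes from a 10-concentration four-parameter fit.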

[2] = target: T2, TAO (Homo sapiens, UniProt Q9UL54); test: TAO Luciferase-Coupled Chemiluminescent Kinase assay (LCCA); conditions: 2 μM ATP, 10 μM MBP, 12 nM TAO, 2 hours; read-out: TAO inhibition IC50
T2 sequence (Q9UL54 1-1235): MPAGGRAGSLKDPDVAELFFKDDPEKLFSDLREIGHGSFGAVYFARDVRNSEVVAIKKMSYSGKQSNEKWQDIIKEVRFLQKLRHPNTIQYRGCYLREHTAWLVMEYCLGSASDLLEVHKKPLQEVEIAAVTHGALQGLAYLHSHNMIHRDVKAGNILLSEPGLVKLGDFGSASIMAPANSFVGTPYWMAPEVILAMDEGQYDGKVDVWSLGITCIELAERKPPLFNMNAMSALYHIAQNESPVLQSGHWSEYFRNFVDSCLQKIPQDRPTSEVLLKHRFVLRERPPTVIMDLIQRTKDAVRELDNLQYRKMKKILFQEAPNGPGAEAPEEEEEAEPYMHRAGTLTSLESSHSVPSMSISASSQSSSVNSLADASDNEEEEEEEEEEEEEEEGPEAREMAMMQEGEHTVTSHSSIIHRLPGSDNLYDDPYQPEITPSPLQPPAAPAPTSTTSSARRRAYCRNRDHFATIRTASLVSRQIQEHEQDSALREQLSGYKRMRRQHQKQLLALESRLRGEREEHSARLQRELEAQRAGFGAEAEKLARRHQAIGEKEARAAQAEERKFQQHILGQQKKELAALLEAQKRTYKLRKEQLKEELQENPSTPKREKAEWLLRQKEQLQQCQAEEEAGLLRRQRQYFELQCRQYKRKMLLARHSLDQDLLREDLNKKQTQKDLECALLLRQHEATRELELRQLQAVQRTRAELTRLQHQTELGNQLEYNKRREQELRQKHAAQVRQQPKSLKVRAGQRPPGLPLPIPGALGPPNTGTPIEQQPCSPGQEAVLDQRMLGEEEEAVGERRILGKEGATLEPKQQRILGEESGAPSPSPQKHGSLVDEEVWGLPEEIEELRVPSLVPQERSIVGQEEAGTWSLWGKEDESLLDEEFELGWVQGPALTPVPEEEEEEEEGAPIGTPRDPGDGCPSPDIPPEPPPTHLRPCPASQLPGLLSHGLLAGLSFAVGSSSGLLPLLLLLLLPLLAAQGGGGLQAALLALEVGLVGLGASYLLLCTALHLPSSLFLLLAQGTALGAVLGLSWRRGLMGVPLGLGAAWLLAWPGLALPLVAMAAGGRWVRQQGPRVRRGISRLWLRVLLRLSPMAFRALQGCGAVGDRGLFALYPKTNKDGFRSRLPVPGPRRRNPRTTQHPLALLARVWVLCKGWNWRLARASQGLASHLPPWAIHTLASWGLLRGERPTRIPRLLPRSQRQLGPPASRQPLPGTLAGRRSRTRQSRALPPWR

[3] = target: T3, KIAA 1361 (baculovirus expressed human KIAA 1361 kinase domain 2-322) (Homo sapiens, UniProt Q7L7X3); test: KIAA 1361 Luciferase-Coupled Chemiluminescent Kinase assay (LCCA); conditions: 2 μM ATP, 10 μM MBP, 12 nM KIAA 1361, 2 hours; read-out: KIAA1361 inhibition IC50
T3 construct: human KIAA 1361 kinase domain 2-322; made in house
T3 sequence (Q7L7X3 2-322): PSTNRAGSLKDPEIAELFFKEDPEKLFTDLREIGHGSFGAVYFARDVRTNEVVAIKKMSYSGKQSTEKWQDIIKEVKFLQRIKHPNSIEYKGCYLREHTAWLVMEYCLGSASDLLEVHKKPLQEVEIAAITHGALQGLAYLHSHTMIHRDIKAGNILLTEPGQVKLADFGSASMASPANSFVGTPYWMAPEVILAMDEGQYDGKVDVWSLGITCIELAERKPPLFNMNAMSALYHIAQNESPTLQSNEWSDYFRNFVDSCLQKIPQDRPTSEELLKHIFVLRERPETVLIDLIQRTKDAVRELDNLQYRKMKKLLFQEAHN
Summary of the method: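 KIAA 1361 kinase domain 2-322 (baculovirus, 12 nM) with 2 μM ATP and 10 μM MBP in Tris pH 7.5, MgCl2, MnCl2; 2 h, ambient. Remaining ATP read by luciferase chemiluminescence; 10 concentrations, IC50 by four-parameter fit.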

IC50 [1] [nM] | IC50 [2] [nM] | IC50 [3] [nM] | Molecule
500 to 5000 | > 5000 | 500 to 5000 | CC(C)CC(NC(=O)c1ccc(-c2ccccc2)cc1)C(=O)NC1CCCc2ccccc21 (stereo not drawn) [Entry 32, N-{3-methyl-1-[(1,2,3,4-tetrahydronaphthalen-1-ylamino)carbonyl]butyl}biphenyl-4-carboxamide]
> 5000 | > 5000 | > 5000 | O=C(CNC(=O)N1CCN(c2ccccc2)CC1)NC1CCCc2ccccc21 (stereo not drawn) [Entry 91, N-[2-oxo-2-(1,2,3,4-tetrahydronaphthalen-1-ylamino)ethyl]-4-phenylpiperazine 1-carboxamide]
< 50 | < 50 | < 50 | COc1ccc2nc(NC(=O)COC(=O)CC(NC(=O)c3ccccc3)c3ccccc3)sc2c1 (stereo not drawn) [Entry 37, 2-{[6-(methyloxy)-1,3-benzothiazol-2-yl]amino}-2-oxoethyl 3-phenyl-3-[(phenylcarbonyl)amino]propanoate]
> 5000 | > 5000 | > 5000 | CCc1ccc(-c2ccc(C(=O)N(C)CC(=O)NC3CCCc4ccccc43)cc2)cc1 (stereo not drawn) [Entry 66, 4′-ethyl-N-methyl-N-[2-oxo-2-(1,2,3,4-tetrahydronaphthalen-1-ylamino)ethyl]biphenyl-4-carboxamide]
> 5000 | > 5000 | > 5000 | Cc1csc(NC(=O)CNC(=O)CC(NC(=O)c2ccccc2)c2ccccc2)n1 (stereo not drawn) [Entry 93, N-[3-({2-[(4-methyl-1,3-thiazol-2-yl)amino]-2-oxoethyl}amino)-3-oxo-1-phenylpropyl]benzamide]
< 50 | < 50 | < 50 | O=C(CNC(=O)c1ccc(-c2ccccc2)cc1)NC1CCCc2ccccc21 (stereo not drawn) [Entry 43, N-[2-oxo-2-(1,2,3,4-tetrahydronaphthalen-1-ylamino)ethyl]biphenyl-4-carboxamide]
50 to 500 | 500 to 5000 | 50 to 500 | CCCCc1ccc(NC(=O)N2CCC[C@H]2C(=O)NCc2ccc(Cl)c(Cl)c2)cc1 [Entry 22, (2S)-N˜-1˜-(4-butylphenyl)-N˜2˜-[(3,4-dichlorophenyl)methyl]pyrrolidine-1,2-dicarboxamide]
> 5000 | > 5000 | > 5000 | CCc1ccc(-c2ccc(C(=O)NCC(=O)N3CCc4ccccc4C3)cc2)cc1 [Entry 60, N-[2-(3,4-dihydroisoquinolin-2(1H)-yl)-2-oxoethyl]-4′-ethylbiphenyl-4-carboxamide]
500 to 5000 | > 5000 | 500 to 5000 | CCCCc1ccc(C(=O)NCC(=O)NC2CCCc3ccccc32)cc1 (stereo not drawn) [Entry 29, 4-butyl-N-[2-oxo-2-(1,2,3,4-tetrahydronaphthalen-1-ylamino)ethyl]benzamide]
50 to 500 | > 5000 | 50 to 500 | CCCCOc1ccc(NC(=O)N[C@@H](COCc2ccccc2)C(=O)NCCc2ccccc2)cc1 [Entry 21, N˜2˜-({[4-(butyloxy)phenyl]amino}carbonyl)-N-(2-phenylethyl)-O-(phenylmethyl)serinamide]
50 to 500 | 500 to 5000 | 500 to 5000 | O=C(CC(NC(=O)c1ccccc1)c1ccccc1)NCC(=O)Nc1nccs1 (stereo not drawn) [Entry 92, N-(3-oxo-3-{[2-oxo-2-(1,3-thiazol-2-ylamino)ethyl]amino}-1-phenylpropyl)benzamide]
> 5000 | > 5000 | > 5000 | CCc1ccc(-c2ccc(C(=O)NCC(=O)NCc3ccc(Cl)c(Cl)c3)cc2)cc1 [Entry 54, N-(2-{[(3,4-dichlorophenyl)methyl]amino}-2-oxoethyl)-4′-ethylbiphenyl-4-carboxamide]
< 50 | 50 to 500 | < 50 | CCc1ccc(-c2ccc(C(=O)NC(C)C(=O)NC3CCc4ccccc4C3)cc2)cc1 (stereo not drawn) [Entry 5, 4′-ethyl-N-[1-methyl-2-oxo-2-(1,2,3,4-tetrahydronaphthalen-2-ylamino)ethyl]biphenyl-4-carboxamide]
50 to 500 | 50 to 500 | 50 to 500 | O=C(CNC(=O)c1ccc(Oc2ccccc2)cc1)NC1CCCc2ccccc21 (stereo not drawn) [Entry 49, N-[2-oxo-2-(1,2,3,4-tetrahydronaphthalen-1-ylamino)ethyl]-4-(phenyloxy)benzamide]
< 50 | 50 to 500 | < 50 | O=C(COc1ccc(-c2nccc(-c3ccccn3)n2)cc1)NCc1ccc(Cl)c(Cl)c1 [Entry 38, N-[(3,4-dichlorophenyl)methyl]-2-{[4-(4-pyridin-2-ylpyrimidin-2-yl)phenyl]oxy]acetamide]
> 5000 | > 5000 | > 5000 | O=C(CNC(=O)c1ccc2ncccc2c1)Nc1cccc2c1CCCC2 [Entry 86, N-[2-oxo-2-(5,6,7,8-tetrahydronaphthalen-1-ylamino)ethyl]quinoline-6-carboxamide]
50 to 500 | > 5000 | 500 to 5000 | CCc1ccc(-c2ccc(C(=O)NCC(=O)NC(C)c3ccccc3)cc2)cc1 (stereo not drawn) [Entry 78, 4′-ethyl-N-{2-oxo-2-[(1-phenylethyl)amino]ethyl}biphenyl-4-carboxamide]
500 to 5000 | > 5000 | > 5000 | O=C(CNC(=O)c1ccc2c(c1)CCCC2)NC1CCCc2ccccc21 (stereo not drawn) [Entry 82, N-[2-oxo-2-(1,2,3,4-tetrahydronaphthalen-1-ylamino)ethyl]-5,6,7,8-tetrahydronaphthalene-2-carboxamide]
< 50 | 50 to 500 | 50 to 500 | O=C(NCC1COc2ccccc2O1)c1ccc2c(c1)NC(=O)c1ccccc1N2 (stereo not drawn) [Entry 42, N-(2,3-dihydro-1,4-benzodioxin-2-ylmethyl)-11-oxo-10,11-dihydro-5H-dibenzo[b,e][1,4]diazepine-8-carboxamide]
> 5000 | > 5000 | > 5000 | CCc1ccc(-c2ccc(C(=O)NCC(=O)N3Cc4ccccc4C3)cc2)cc1 [Entry 57, N-[2-(1,3-dihydro-2H-isoindol-2-yl)-2-oxoethyl]-4′-ethylbiphenyl-4-carboxamide]
500 to 5000 | > 5000 | 500 to 5000 | N-˜2˜-({[4-(1,1-dimethylethyl)phenyl]oxy}acetyl)-N-(1,2,3,4-tetrahydronaphthalen-1-yl)glycinamide [Entry 33]
< 50 | 50 to 500 | 50 to 500 | O=C(COc1ccc(Br)cc1)NCC(=O)NC1CCCc2ccccc21 (stereo not drawn) [Entry 3, N˜2˜-{[(4-bromophenyl)oxy]acetyl}-N-(1,2,3,4-tetrahydronaphthalen-1-yl)glycinamide]

Reference: patent publication US20070208166A1, “Tao Kinase Modulators And Method Of Use” (Exelixis, Inc., priority 2003, published 2007)
